Assay results taken from EP2803317B1, “MRI METHOD FOR MEASURING DIFFUSION PARAMETERS OF TRACER IN LIVING ORGAN TISSUE SPACE AND EXTRACELLULAR SPACE” (Peking University Third Hospital, priority 2012, dated 2013).

Columns and labels:
[1] = MRI tracer method: distribution volume and macro clearance of Gd-DTPA in the skeletal muscle gap; assay type: in vivo; conditions: rat skeletal muscle gap
From the text: (§1) Calculation method about distribution volume (Vd), distribution volume fraction and general clearance of the tracer in the living organism is as follows: reconstructing the registered and subtracted images into axial images; quantitative measuring the signal increment region in image of each layer via the Matlab program as shown in figures; and recording the number of pixels in the increment region and the signal intensity value of each pixel. According to the integral principle, we can obtain the distribution volumes (Vd) of the tracer (Gd-DTPA) from different times in the brain hemisphere ECS via adding up the increment region of each layer. The distribution volume fraction of Gd-DTPA in the brain hemisphere ECS can be obtained by dividing the Vd from different times by the volume of the brain hemisphere of the rat. The macro clearance is defined as the total signal intensity at a previous time subtracting the total signal intensity at a later time, then dividing the initial total signal intensity.
(§2) Although the above invention is for the brain ECS of the SD rat, the present invention is applicable to other the living organisms. […] The left high signal region adjacent to the femur is the Gd-DTPA's diffusion region after injection.

[2] = MRI tracer method: diffusion parameters of Gd-DTPA in brain ECS of SD rats, fitted from time-series MRI images; assay type: in vivo; conditions: for λ: tortuosity
Method: (§3) A method for computing the physiological parameter in the living organism will be illustrated with the following embodiment. In the embodiment, Gadolinium-diethylenetriaminepentaacetic acid (Gd-DTPA) which is Mag-nevist solution produced by Bayer Schering Pharma AG was used as the tracer. The corresponding MRI signal intensities of the tracer with the actual concentration in agarose gel and rat brain were measured. Male Sprague Dawley rats weighing 250-300g were used in the experiment. The living organism used for measurement is the rat brain. A Siemens Magnetom Trio 3.0 T MRI system was used to obtain the rat brain images.
(§4) In this embodiment, the position of the injection site Q and the depth of Gd-DTPA microinjection of the rat brains were determined by three-dimensional reconstructed image basing on the brain stereotaxic atlas. The specific method was: preparing skin, shaving between the eyes of rats about 4cm skin backwards along the midline of the skull and exposing the skull plate; then fixing the rats in a stereotactic apparatus and administrating the drug at the injection site Q using magnetic drug delivery system; rubbing off the skull plate at the entry point with an electric drill, setting a micro syringe into the brain and manually administrating 2µLGd-DTPA solution with the concentration of 10mM into the target location in three injection with the interval of 5min. The syringe was left for 10 min in the brain when drug injection was finished before the micro syringe was exited and the skin was sutured. Scanned images were taken in 15min, 30min, 1h, 2h, 3h, 4h, 6h, 9h and 12h and imaging parameters were set as the mentioned above.
As shown in the FIG., the bias field is first to be correct to eliminate the signal strength deviation among the sequence of images; the image registration technique is then used to unify the position of the increment images with the referenced images; the diffusion model is finally solved via the distribution of the tracer concentration from different times obtained by the analysis of the signal strength increment.
Although the tortuosity varies in different directions and remains unchanged in the same direction in equation (5), the real tortuosity probably varies in the same direction. The space variability of the tortuosity should be determined to accurately describe the real diffusion process. The tortuosity of a point (x, y, z) in space is: λ = λ(x, y, z) [formula] or written in a polar coordinates: λ = λ(r, θ, φ) [formula] the diffusion model is changed to: (∂C)/(∂t) = (D)/(λ((x, y, z))^2)(∇)^2 C−(Q)/(α)−k′C [formula]
Although equation (10) fully considers the space variability of the tortuosity, the solution of equation (8) is difficult to get. The equation (8) is a partial differential formula with variable coefficients and usually has no analytic solution. The continuous problem can be turned into a discrete problem to solve the equation (10): ΔSI(t+Δt)−ΔSI(t) = (D)/(λ((x, y, z))^2)(∇)^2 (ΔSI) + (Q)/(α)k−k′ΔSI(t) + k′b [formula] wherein, Δt is the sampling time in each unit, [formula] Δi represents the space distance of sampling along the axis i. It depends on the space resolution of the image along the axis i.
For the discrete equation (11), the space tortuosity λ, the loss ratio k' and the part volume ratio α can be fit by the least squares method, i.e. the solution of the below optimization problem is required: [formula]
Write the equation (12) in a matrix form and get: min f(λ,α,k′) = ‖Ax−b‖2^2 [formula] wherein, the nonvanishing element in the line (x, y, z, t,:) of the matrix A is : ((∂)^2 ΔSI)/((∂)^2 r) + k−ΔSI + b [formula] the line (x, y, Z, t,) of the known vector b is: b(x,y,z,t,:) = ΔSI(t+Δt)−ΔSI(t) [formula] the substitution variable x is: x = ([(D)/(λ((x, y, z))^2),(Q)/(α),k′])^T [formula] […]

[3] = MRI tracer method: diffusion parameters of Gd-DTPA in the glioma brain; assay type: in vivo; conditions: glioma brain of the rat
From the text: Table 8: the diffusion parameter of Gd-DTPA in the glioma brain of the rat

[4] = MRI tracer method: distribution volume, distribution volume fraction and macro clearance of Gd-DTPA in the glioma brain; assay type: in vivo; conditions: glioma brain of the rat
From the text: as §1
Using the same method as used in the brain ECS, we can learn the time-varying change rule of distribution volume of the Gd-DTPA in the glioma brain of the rat. Table 9: the time-varying change rule of distribution volume of the Gd-DTPA in the glioma brain of the rat

[5] = MRI tracer method: distribution volume, distribution volume fraction and macro clearance of Gd-DTPA in brain hemisphere ECS after injection in caudate nucleus; assay type: in vivo, SD rats; conditions: for Macro clearance: injection to the caudate nucleus of eight SD rats; for Distribution Volume Fraction: rat brain hemisphere; for Distribution Volume Fraction / Distribution Volume (Vd): after injection in caudate nucleus; for Distribution Volume (Vd): rat brain
Method: as §3, §4, §1
The selected region in the FIG. is obtained by subtracting the image before increment from the increment image. The increment region is shown as the "bright region" and the other un-increment region is shown as the "dark region". […] Using the bulleted method above can measure the Vd, the distribution volume fraction and the macro clearance of the caudate nucleus.

[6] = MRI tracer method: diffusion parameters of Gd-DTPA in the skeletal muscle gap; assay type: in vivo; conditions: rat skeletal muscle gap
From the text: as §2

[7] = SD rat brain, caudate putamen (CPu), Gd-DTPA 2µL, 10mM microinjection
[8] = SD rat brain, medial prefrontal cortex (mPFC), Gd-DTPA 2µL, 10mM microinjection
[9] = SD rat brain, occipital cortex (Oc), Gd-DTPA 2µL, 10mM microinjection
[10] = SD rat brain, substantianigra (SN), Gd-DTPA 2µL, 10mM microinjection
[11] = SD rat brain, thalamus (T), Gd-DTPA 2µL, 10mM microinjection
[12] = rats' caudate nucleus region, anisotropic, direction -X
[13] = rats' caudate nucleus region, anisotropic, direction -Y
[14] = rats' caudate nucleus region, anisotropic, direction -Z
[15] = rats' caudate nucleus region, anisotropic, direction X
[16] = rats' caudate nucleus region, anisotropic, direction Z

Structure (SMILES): O=C([O-])CN(CCN(CC(=O)[O-])CC(=O)O)CCN(CC(=O)[O-])CC(=O)O.[Gd+3] [Gd-DTPA, Gadolinium-diethylenetriaminepentaacetic acid]
- Vd ([1]; time 5 min): 407 mm^3
- Vd ([1]; time 10 min): 383 mm^3
- Vd ([1]; time 15 min): 234 mm^3
- Vd ([1]; time 25 min): 0 mm^3
- Macro clearance ([1]; time(h) 5-10): 0.28 h⁻¹
- Macro clearance ([1]; time(h) 10-15): 0.36 h⁻¹
- Macro clearance ([1]; time(h) 15-25): 0.36 h⁻¹
- D^∗ [2, 7]: 3.38 ×10^-4/mm^2·s^-1
- k' [2, 7]: 0.76 ×^10-4/mM· L^-1· s^-1
- D^∗ [2, 8]: 2.31 ×10^-4/mm^2·s^-1
- k' [2, 8]: 2.38 ×^10-4/mM· L^-1· s^-1
- D^∗ [2, 9]: 3.25 ×10^-4/mm^2·s^-1
- k' [2, 9]: 1.55 ×^10-4/mM· L^-1· s^-1
- D^∗ [2, 10]: 2.06 ×10^-4/mm^2·s^-1
- k' [2, 10]: 8.28 ×^10-4/mM· L^-1· s^-1
- D^∗ [2, 11]: 3.28 ×10^-4/mm^2·s^-1
- k' [2, 11]: 1.44 ×^10-4/mM· L^-1· s^-1
- D^∗ [2, 12]: 3.57 ± 0.88 ×10^-4/mm^2·s^-1
- k' [2, 12]: 7.14 ± 3.06 ×10^-5/mM·L^-1·s^-1
- D^∗ [2, 13]: 3.05 ± 0.93 ×10^-4/mm^2·s^-1
- k' [2, 13]: 7.59 ± 4.04 ×10^-5/mM·L^-1·s^-1
- D^∗ [2, 14]: 4.01 ± 0.60 ×10^-4/mm^2·s^-1
- k' [2, 14]: 7.88 ± 6.24 ×10^-5/mM·L^-1·s^-1
- D^∗ [2, 15]: 3.73 ± 1.10 ×10^-4/mm^2·s^-1
- k' [2, 15]: 7.67 ± 3.96 ×10^-5/mM·L^-1·s^-1
- D^∗ [2, 16]: 2.54 ± 1.27 ×10^-4/mm^2·s^-1
- k' [2, 16]: 7.74 ± 4.07 ×10^-5/mM·L^-1·s^-1
- λ ([2]; SD rat brain, caudate putamen (CPu)): 1.24
- λ ([2]; SD rat brain, medial prefrontal cortex (mPFC)): 1.50
- λ ([2]; SD rat brain, occipital cortex (Oc)): 1.26
- λ ([2]; SD rat brain, substantianigra (SN)): 1.59
- λ ([2]; SD rat brain, thalamus (T)): 1.26
- k' ([3]; direction -X): 3.31 ×10^-4/mM·L^-1·s^-1
- k' ([3]; direction -Y): 3.12 ×10^-4/mM·L^-1·s^-1
- k' ([3]; direction -Z): 3.05 ×10^-4/mM·L^-1·s^-1
- k' ([3]; direction X): 3.13 ×10^-4/mM·L^-1·s^-1
- k' ([3]; direction Z): 3.15 ×10^-4/mM·L^-1·s^-1
- Macro clearances ([4]; time 0.5-1 h): 0.23 h⁻¹
- Macro clearances ([4]; time 1-2 h): 0.36 h⁻¹
- Macro clearances ([4]; time 2-3 h): 0.41 h⁻¹
- Distribution Volume Fraction ([4]; time 0.25 h): 4.85%
- Vd ([4]; time 0.25 h): 466 mm^3
- Distribution Volume Fraction ([4]; time 0.5 h): 6.78%
- Vd ([4]; time 0.5 h): 651 mm^3
- Distribution Volume Fraction ([4]; time 1 h): 7.50%
- Vd ([4]; time 1 h): 720 mm^3
- Distribution Volume Fraction ([4]; time 2 h): 5.24%
- Vd ([4]; time 2 h): 503 mm^3
- Distribution Volume Fraction ([4]; time 3 h): 0%
- Vd ([4]; time 3 h): 0 mm^3
- Macro clearance ([5]; time 1-2 h): 0.23 h⁻¹
- Macro clearance ([5]; time 2-3 h): 0.12 h⁻¹
- Macro clearance ([5]; time 3-4 h): 0.19 h⁻¹
- Macro clearance ([5]; time 4-6 h): 0.11 h⁻¹
- Macro clearance ([5]; time 6-9 h): 0.06 h⁻¹
- Macro clearance ([5]; time 9-12 h): 0.08 h⁻¹
- Distribution Volume Fraction ([5]; time 1 h): 7.55%
- Distribution Volume Fraction ([5]; time 2 h): 9.48%
- Distribution Volume Fraction ([5]; time 3 h): 9.45%
- Distribution Volume Fraction ([5]; time 4 h): 8.20%
- Distribution Volume Fraction ([5]; time 6 h): 6.96%
- Distribution Volume Fraction ([5]; time 9 h): 4.29%
- Distribution Volume Fraction ([5]; time 12 h): 1.33%
- Distribution Volume (Vd) ([5]; time 1 h): 724.75 mm^3
- Distribution Volume (Vd) ([5]; time 2 h): 910.50 mm^3
- Distribution Volume (Vd) ([5]; time 3 h): 907.25 mm^3
- Distribution Volume (Vd) ([5]; time 4 h): 787.57 mm^3
- Distribution Volume (Vd) ([5]; time 6 h): 668.50 mm^3
- Distribution Volume (Vd) ([5]; time 9 h): 411.57 mm^3
- Distribution Volume (Vd) ([5]; time 12 h): 128.13 mm^3
- D^∗ ([6]; direction -X): 2.611 ×10^-4/mm^2·s^-1
- k' ([6]; direction -X): 2.359 ×10^-4/mM·L^-1·s^-1
- D^∗ ([6]; direction -Y): 8.235 ×10^-4/mm^2·s^-1
- k' ([6]; direction -Y): 10.940 ×10^-4/mM·L^-1·s^-1
- D^∗ ([6]; direction -Z): 7.154 ×10^-4/mm^2·s^-1
- k' ([6]; direction -Z): 5.083 ×10^-4/mM·L^-1·s^-1
- D^∗ ([6]; direction X): 2.930 ×10^-4/mm^2·s^-1
- k' ([6]; direction X): 2.870 ×10^-4/mM·L^-1·s^-1
- D^∗ ([6]; direction Z): 9.537 ×10^-4/mm^2·s^-1
- k' ([6]; direction Z): 7.817 ×10^-4/mM·L^-1·s^-1
